Test results taken from patent US20260234630A1, “Methods for Treating Multiple Myeloma” (Celgene Corporation, priority 2022, published 2026).

Columns and labels:
Ikaros, Aiolos and ZFP91 = assay: Western blot of cereblon substrates in MM cells; assay type: cell-based
Method: FIG. 1A-1F. […] (1A) Volcano plot of protein expression changes determined by mass spectrometry in H929 cells at 24 hr of treatment with CC-220 (0.1 μM) or DMSO control. X axis, Log2fold change (FC); Y axis, significance,-log 10 [p-value]. […] (1B) Volcano plot of gene expression changes determined by Affymetrix microarray in H929 cells treated with POM (1 μM) or DMSO for 24 hr. X axis, Log2fold change (FC); Y axis, significance,-log 10 [p-value], n=2 technical replicates). […] (1C) Western blot analysis protein expression of UHRF1, Ikaros, Aiolos and ZFP91 in H929 cells treated with 1 μM POM for indicated time. (1D) qRT-PCR analysis of UHRF1 gene expression levels in cells as in (1C). Error bars represent the SEM from duplicate measurements. (1E) Western blot analysis protein expression of UHRF1 and indicated proteins in MM cells treated with DMSO (−) or 1 μM POM (+) for 3 days. GAPDH serves as a loading control. (1F) Thymidine incorporation of various MM cell lines treated with indicated dose of POM for 3 days. Error bars represent the SEM from technical replicates.
FIG. 2A-2E. […] (2A) Western blot analysis protein expression of UHRF1, Ikaros, Aiolos, ZFP91 and Cereblon expression in control [shLuciferase (shLuc)] and cereblon knockdown (shCRBN) H929 cells treated with DMSO and 1 μM POM for 3 days. GAPDH, loading control. Arrow head, UHRF1. (2B) qRT-PCR analysis of UHRF1 gene expression levels in cells as in (2A). Data was normalized to ACTB. Error bars represent the SEM of technical duplicates. *** P<0.001 (Two-tailed unpaired Student's t-test). (2C) Western blot analysis protein expression of UHRF1, Ikaros and Aiolos in stably transduced H929 cells after Dox induction (0, 10, 50 or 100 ng/ml) for 3 days of non-target shRNA (shNT) or shRNAs targeting Ikaros (shIKZF1) or Aiolos (shIKZF3). (2D) qRT-PCR analysis of UHRF1 gene expression levels in cells as in (2C). Shown are cells induced with Dox (50 ng/ml) for 3 days. Data was normalized to GAPDH. Error bars represent the SEM of technical duplicates. *P<0.05, ** P<0.01, *** P<0.001, **** P<0.0001 (Two-tailed unpaired Student's t-test). […] ChIP with control rabbit IgG (IgG) serves as a negative control. Error bars represent the SEM of technical triplicates. * P<0.05, ** P<0.01, **** P<0.0001 (Two-tailed unpaired Student's t-test).
Cells were lysed with cell lysis buffer (50 mM TrisHCl pH7.4, 250 mM NaCl, 0.5% Triton X100, 10% glycerol) supplemented with protease inhibitor cocktail. Cell lysates were subjected to sonication to breakdown nuclei and reduce viscosity caused by released genomic DNA. The protein concentration was measured by a Bradford Protein Assay (Bio-Rad). […] Proteins of interested were detected incubation with primary antibodies listed below at 4° C. overnight. […]

UHRF1 = assay: Immunocytochemistry assay of UHRF1 in H929 cells; assay type: cell-based; settings: 48 hours after 1 μM POM
Method: FIG. 6A-6D. […] (6A) Immunocytochemistry assay of UHRF1 in H929 cells treated with DMSO or 1 μM POM for 48 hrs. (6B) qRT-PCR analysis of UHRF1 gene expression levels in indicated MM cells treated with indicated doses of POM for 3 days. Data was normalized to ACTB. Error bars represent the SEM from duplicate measurements. * P<0.05, ** P<0.01, *** P<0.001, **** P<0.0001 (Two-tailed Student's t-test). (6C) Western blot analysis protein expression of UHRF1, Ikaros, Aiolos, ZFP91 and Celebron in H929 cells treated with 1 μM POM or 0.1 μM CC-220 for 3 days. DMSO, vehicle control. (6D) Western blot analysis protein expression of UHRF1, Ikaros, Aiolos, ZFP91 and Celebron in H929 or RPMI 8226 cells treated with 1 μM POM, 0.1 μM CC-220 or 0.01 μM CC-480 for 3 days. DMSO, vehicle control.

Structure (SMILES): Nc1cccc2c1C(=O)N(C1CCC(=O)NC1=O)C2=O (centres unmarked) [POM, pomalidomide]
- time to degradation of Ikaros, Aiolos and ZFP91 proteins (Ikaros, Aiolos and ZFP91; H929 cells, POM 1 μM, time course): ≤ 3 h
- cereblon substrates (Ikaros, Aiolos, ZFP91) protein (Ikaros, Aiolos and ZFP91; MC/CAR and RPMI 8226 cells, 1 μM POM, 3 days): degraded
- Ikaros, Aiolos and ZFP91 expression level (Ikaros, Aiolos and ZFP91; sensitive cell lines H929, MM1.S, DF15 and U266, 1 μM POM, 72 hours): downregulated
- degradation of the substrates by POM under cereblon knockdown (Ikaros, Aiolos and ZFP91; shCRBN vs shLuc H929 cells, 1 μM POM, 3 days): rescued
- UHRF1 protein by immunocytochemistry (UHRF1): nearly undetectable
